# Source: patent US10743544B2, “Method for inactivating Cronobacter sakazakii” (priority 2015, dated 2020)
# Entries after “also recorded” stand apart in the source; their conditions may differ.
# Legend:
# [1] = test system: Cronobacter sakazakii strains ES45, ES46, ES37, and ES39; assay: Tolerance of C. sakazakii to different natural extracts in PIF, plate count (FIG. 1); format: cell-based; conditions: 0.5% in PIF, pH not adjusted, four strains; for growth trend of C. sakazakii (plate count): 37° C., up to 7 hours
# Method: (§1) A commercial PIF (Wondersun, Harbin, Hei Longjiang Province, China) was purchased and reconstituted according to the manufacturer's instruction. Briefly, 15 g of the PIF was reconstituted in 100 mL of sterile distilled water. 5 mg/mL TP, malic acid, citric acid or ascorbic acid (VC) was added to the rehydrated PIF, and shaken gently to make sure that it was fully dissolved. A pH meter was used to determine the pH of all the solutions. The initial pH of rehydrated PIF was 6.82 and it dropped to pH 3.62, pH 3.55, pH 4.55 and pH 6.46 after added 5 mg/mL malic acid, citric acid, VC and TP, respectively. The final concentration of the natural extract solutions was 0.5% and the milk powder solutions were packed into different test tubes with 9 ml solution in each tube. Milk powder solution without any natural extract product was used as the control group.
# 1 mL of 8.0 Log CFU/mL cell suspensions of four C. sakazakii strains were separately added to 9 mL rehydrated PIF with different natural extracts prepared above to obtain final concentrations of approximately 7.0 Log CFU/mL. The cell suspensions with different natural extracts were incubated at 37° C. for 1, 3, 5 and 7 hours, and mixed to make sure that the solutions were homogeneous. After serial dilution with NS, 0.1 mL of appropriately diluted cultures were spread-plated on TSA plates and incubated upside down at 37° C. overnight to observe the growth of Cronobacter sakazakii.
# The tolerance of four different ST types of Cronobacter sakazakii to different natural extracts was studied by serial dilution plate count method. The cell suspensions were separately added to PIF containing 0.5% tea polyphenols, 0.5% VC, 0.5% malic acid or 0.5% citric acid. The pH of each solution was measured using a pH meter and the plate count analysis was carried out at different time points of incubation.
# [2] = test system: Cronobacter sakazakii strains ES45, ES46, ES37 and ES39; assay: Tolerance of C. sakazakii to acidified natural extracts in PIF, pH 3.55 (FIG. 2); format: cell-based; conditions: 0.5% in PIF, pH 3.55 versus unadjusted pH
# Method: A commercial PIF (Wondersun, Harbin, Hei Longjiang Province, China) was purchased and reconstituted according to the manufacturer's instruction. Briefly, 15 g of the PIF was reconstituted in 100 mL of sterile distilled water. 5 mg/mL TP was added to the rehydrated PIF and shaken gently to make sure it was fully dissolved. As controls, malic acid, citric acid and VC were dissolved in PIF in the same way as that of TP. A pH meter was used to determine the pH of all solutions. The initial pH of rehydrated PIF was 6.82 and the value of pH dropped to pH 3.62, pH 3.55, pH 4.55 and pH 6.46 after addition of 5 mg/mL malic acid, citric acid, VC and TP, respectively. The final concentration of the natural extract solutions was 0.5% (w/v) and PIF solutions were packed into different test tubes, each tube with 9 mL solution. PIF solution without adding additional substance was used as the blank control group.
# In order to eliminate the effect of pH on the growth of Cronobacter sakazakii, it is necessary to adjust the pH for each treatment group to be the same. The pH of all the treatment groups was adjusted to pH 3.55 with 4 M HCl and 4M NaOH, which was the minimum pH of all the treatment solutions. The PIF acidified with HCl was used as the control. 1 mL of 8.0 Log CFU/mL cell suspensions of the four C. sakazakii strains were separately added to 9 mL acidified PIF with different natural extracts. […]
# [3] = pH of rehydrated PIF after addition of natural extract (pH meter); format: physicochemical; conditions: 5 mg/mL added to rehydrated PIF (initial pH 6.82)
# Method: as §1
SMILES,growth trend of C. sakazakii (plate count) [1],antibacterial effect in PIF [1],antibacterial/inhibitory effect after acidification compared with before [2],pH of rehydrated PIF after addition [3]
"O=C1O[C@H]([C@@H](O)CO)C(O)=C1O [VC, ascorbic acid]",slower growth trend,not obvious,stronger antibacterial activity than before the treatment,4.55
O=C(O)CC(O)(CC(=O)O)C(=O)O [citric acid],downward trend,some antibacterial effect,not significantly different; also recorded: not significant,3.55
O=C(O)CC(O)C(=O)O (centres unmarked) [malic acid],did not change much,not obvious,,3.62
